Laboratory results published in paper PMC8286815 (Biochemical Journal, 2021).
Like-named read-outs stand apart in the source and are kept apart here.

Assays:
[1] = system: SARS-CoV-2 in Vero E6 cells; set-up: method as in Zeng et al. [46]; conditions: same protocol, ref Zeng et al. [46], read-out: EC50 against SARS-CoV-2; cited from earlier work
[2] = biological target: T1, SARS-CoV-2 RdRp (nsp12/nsp7/nsp8) (Severe acute respiratory syndrome coronavirus 2, UniProt P0DTD1); assay: Gel-based polymerisation (primer-extension) assay; assay type: biochemical; conditions: compound at 50 µM, 30-min reaction, 300 nM RdRp, native PAGE
T1 construct: added initiator Met before nsp12 (N); made in house; host or cells: Sf9 insect cells (Spodoptera frugiperda), baculovirus

[3] = biological target: T1, SARS-CoV-2 RdRp (nsp12/nsp7/nsp8); assay: FRET-based strand displacement assay (RdRp activity); assay type: biochemical; conditions: 100 nM RNA substrate, 300 µM of each NTP
[4] = system: SARS-CoV-2 in Vero E6 cells; assay: Viral inhibition assay (N protein immunofluorescence); assay type: cell-based; conditions: for EC50: read-out: EC50 antiviral activity against SARS-CoV-2
Vero E6 cells = assay: Cell viability in the viral inhibition assay (DRAQ7 staining); conditions: DRAQ7 area, concentrations tested up to 300 µM
[5] = system: influenza A viruses in A549 cells; set-up: method as in PMID 26711748; conditions: different strains, read-out: EC50 suppression of replication of influenza A viruses; cited from earlier work
influenza infection = conditions: treated mice; cited from earlier work
[6] = IC50 (µM) + 0.01% Triton X-100, 150 nM RdRp, presence of 0.01% Triton X-100
[7] = IC50 (µM) No detergent, 150 nM RdRp, absence of Triton X-100
[8] = Severe acute respiratory syndrome coronavirus 2, Vero C1008, Vero E6 cells, MOI 0.5 PFU/cell, 22 h, area of viral plaques by N protein staining
[9] = Severe acute respiratory syndrome coronavirus 2, Vero C1008, 22 h

Compound | Inhibition of RNA duplex formation [2] | IC50 [3, 6] [µM] | IC50 [3, 7] [µM] | EC50 [4, 8] [µM] | EC50 [4, 9] [µM] | other results
Cc1ccc(C(=O)Nc2ccc(S(=O)(=O)O)c3cc(S(=O)(=O)O)cc(S(=O)(=O)O)c23)cc1NC(=O)c1cccc(NC(=O)Nc2cccc(C(=O)Nc3cc(C(=O)Nc4ccc(S(=O)(=O)O)c5cc(S(=O)(=O)O)cc(S(=O)(=O)O)c45)ccc3C)c2)c1 [Suramin] | inhibited RNA duplex formation almost completely | 0.78 | 0.43 | – | – | EC50 [1]: 9.9 µM
CC(C)C(C(=O)O)N1C(=O)/C(=C/c2ccc(Br)cc2)SC1=S (stereo not shown) [BH3I-1] | inhibited RNA duplex formation almost completely | 13 | 14 | 77 | – | –
OC[C@@H](O)[C@H]1NC[C@@H](O)[C@H]1O [1,4-Dideoxy-1,4-imino-D-mannitol] | – | – | – | – | – | IC50 (µM) No detergent ([3]; 150 nM RdRp, absence of Triton X-100): no cl ear i nhi bi ti; IC50 (µM) + 0.01% Triton X-100 ([3]; 150 nM RdRp, presence of 0.01% Triton X-100): no cl ear i nhi bi ti
O=C(O)c1ccc(-c2c[nH]c3ncc(-c4ccccc4)cc23)cc1C1CCCC1 [GSK-650394] | partial inhibition | 29 | 31 | – | 7.6 | Concentration at which cytotoxicity was seen (Vero E6 cells): 300 µM
CCC(CC)COC(=O)[C@H](C)N[P@](=O)(OC[C@H]1O[C@@](C#N)(c2ccc3c(N)ncnn23)[C@H](O)[C@@H]1O)Oc1ccccc1 [Remdesivir] | – | – | – | 1.8 | – | inhibition at 0.5 µM ([4]; Severe acute respiratory syndrome coronavirus 2, Vero C1008, 0.5 µM, Vero E6 cells, read-out: Inhibition of viral infection as a single agent): < 10%
CC1=NN(c2ccc(C(=O)O)cc2)C(=O)C1=Cc1ccc(-c2cc(C)c(C)cc2[N+](=O)[O-])o1 [C646] | inhibited RNA duplex formation almost completely | 7.8 | 6.1 | 19 | – | EC50 [5]: 16 µM; Toxicity in murine models of influenza infection (influenza infection): no associated toxicity; Viral replication in murine models of influenza infection (influenza infection): significant reduction in viral replication
NC(=O)c1cc[n+](CC2=C(C(=O)O)N3C(=O)[C@@H](NC(=O)[C@@H](c4ccccc4)S(=O)(=O)[O-])[C@H]3SC2)cc1 [Cefsulodin] | partial inhibition | 49 | 50 | – | 108 | –
O=C1C(=O)N(Cc2ccc(Cl)c(Cl)c2)c2ccccc21 [MDK-83190] | – | – | – | – | 81 | –
Nc1c(C(=O)O)c2nc3c(C(=O)O)cccc3oc-2cc1=O [Cinnabarinic Acid] | – | > 100 | > 100 | – | – | –
